Test results reported in BindingDB's records for doi:10.1021/jm001024j (Uppsala University, 2001).

What follows are molecules tested against T1, Dimer of Gag-Pol polyprotein [489-587] (Human immunodeficiency virus 1, UniProt P12497) (assay: Protease Inhibition Assay). Details: pH 5; 30 °C.
T1 construct: 489-587

SMILES	Ki
O=C(CN1[C@H](COc2ccccc2)[C@H](O)[C@@H](O)[C@@H](COc2ccccc2)N(Cc2cccc(-c3cccs3)c2)S1(=O)=O)Nc1nccs1 [(3R,4S,5S,6R)-3,6-Bis(phenoxymethyl)-4,5-dihydroxy-2-[(N-2-thiazolylcarbamoyl)methyl]-7-[3-(2-thienyl)benzyl]-1,2,7-thiadiazepine 1,1-Dioxide]	0.14 µM
O=C(CN1[C@H](COc2ccccc2)[C@H](O)[C@@H](O)[C@@H](COc2ccccc2)N(Cc2ccccc2)S1(=O)=O)Nc1nccs1 [(3R,4S,5S,6R)-3,6-Bis(phenoxymethyl)-4,5-dihydroxy-7-benzyl-2-[(N-2-thiazolylcarbamoyl)methyl]-1,2,7-thiadiazepine 1,1-Dioxide]	0.35 µM
O=S1(=O)N(Cc2ccc(-c3cccs3)cc2)[C@H](COc2ccccc2)[C@H](O)[C@@H](O)[C@@H](COc2ccccc2)N1Cc1ccc(-c2cccs2)cc1 [(3R,4S,5S,6R)-4,5-dihydroxy-3,6-bis(phenoxymethyl)-2,7-bis({[4-(thiophen-2-yl)phenyl]methyl})-1,2,7-thiadiazepane-1,1-dione]	0.92 µM
O=S1(=O)N(Cc2ccc(-c3cccs3)cc2)[C@H](COc2ccccc2)[C@H](O)[C@@H](O)[C@@H](COc2ccccc2)N1Cc1cccc(-c2cccs2)c1 [(3R,4S,5S,6R)-4,5-dihydroxy-3,6-bis(phenoxymethyl)-7-{[3-(thiophen-2-yl)phenyl]methyl}-2-{[4-(thiophen-2-yl)phenyl]methyl}-1,2,7-thiadiazepane-1,1-dione]	6 µM
CC(N=O)c1cccc(CN2[C@H](COc3ccccc3)[C@H](O)[C@@H](O)[C@@H](COc3ccccc3)N(Cc3cccc(C(C)N=O)c3)S2(=O)=O)c1 (stereo not given in full)	0.0034 µM
CNC(=O)CN1[C@H](COc2ccccc2)[C@H](O)[C@@H](O)[C@@H](COc2ccccc2)N(Cc2ccccc2)S1(=O)=O [2-[(3R,4S,5S,6R)-7-benzyl-4,5-dihydroxy-1,1-dioxo-3,6-bis(phenoxymethyl)-1,2,7-thiadiazepan-2-yl]-N-methylacetamide]	1.4 µM
O=C(CN1[C@H](COc2ccccc2)[C@H](O)[C@@H](O)[C@@H](COc2ccccc2)N(Cc2cccc(I)c2)S1(=O)=O)Nc1nccs1 [(3R,4S,5S,6R)-3,6-Bis(phenoxymethyl)-4,5-dihydroxy-7-(3-iodobenzyl)-2-[(N-2-thiazolylcarbamoyl)methyl]-1,2,7-thiadiazepine 1,1-Dioxide]	0.51 µM
O=C(CN1[C@H](COc2ccccc2)[C@H](O)[C@@H](O)[C@@H](COc2ccccc2)N(Cc2ccc(-c3cccs3)cc2)S1(=O)=O)Nc1nccs1 [2-[(3R,4S,5S,6R)-4,5-dihydroxy-1,1-dioxo-3,6-bis(phenoxymethyl)-7-{[4-(thiophen-2-yl)phenyl]methyl}-1,2,7-thiadiazepan-2-yl]-N-(1,3-thiazol-2-yl)acetamide]	1.8 µM
CNC(=O)c1cccc(CN2[C@H](COc3ccccc3)[C@H](O)[C@@H](O)[C@@H](COc3ccccc3)N(Cc3cccc(C(=O)NC)c3)S2(=O)=O)c1 [(3R,4S,5S,6R)-2,7-Bis[3-(N-methylcarbamoyl)benzyl]-3,6-bis(phenoxymethyl)-4,5-dihydroxy-1,2,7-thiadiazepine 1,1-Dioxide]	0.039 µM
O=S1(=O)N(Cc2ccccc2)[C@H](COc2ccccc2)[C@H](O)[C@@H](O)[C@@H](COc2ccccc2)N1Cc1ccc(-c2cccs2)cc1 [(3R,4S,5S,6R)-2-benzyl-4,5-dihydroxy-3,6-bis(phenoxymethyl)-7-{[4-(thiophen-2-yl)phenyl]methyl}-1,2,7-thiadiazepane-1,1-dione]	0.063 µM
O=S1(=O)N(Cc2cccc(I)c2)[C@H](COc2ccccc2)[C@H](O)[C@@H](O)[C@@H](COc2ccccc2)N1Cc1cccc(I)c1	0.093 µM
O=S1(=O)N(Cc2ccc(CO)cc2)[C@H](COc2ccccc2)[C@H](O)[C@@H](O)[C@@H](COc2ccccc2)N1Cc1ccc(CO)cc1	0.0031 µM
O=S1(=O)N(Cc2cccc(-c3cccs3)c2)[C@H](COc2ccccc2)[C@H](O)[C@@H](O)[C@@H](COc2ccccc2)N1Cc1cccc(-c2cccs2)c1 [(3R,4S,5S,6R)-3,6-Bis(phenoxymethyl)-2,7-bis[3-(2-thienyl)benzyl]-4,5-dihydroxy-1,2,7-thiadiazepine 1,1-Dioxide]	2.2 µM
O=S1(=O)N(Cc2cccc(CCO)c2)[C@H](COc2ccccc2)[C@H](O)[C@@H](O)[C@@H](COc2ccccc2)N1Cc1cccc(CCO)c1	0.043 µM
COC(Cc1cccc(CN2[C@H](COc3ccccc3)[C@H](O)[C@@H](O)[C@@H](COc3ccccc3)N(Cc3cccc(CC(OC)OC)c3)S2(=O)=O)c1)OC [(3R,4S,5S,6R)-2,7-bis({[3-(2,2-dimethoxyethyl)phenyl]methyl})-4,5-dihydroxy-3,6-bis(phenoxymethyl)-1,2,7-thiadiazepane-1,1-dione]	0.54 µM
CC(=O)c1cccc(CN2[C@H](COc3ccccc3)[C@H](O)[C@@H](O)[C@@H](COc3ccccc3)N(Cc3cccc(C(C)=O)c3)S2(=O)=O)c1	0.059 µM
CNC(=O)CN1[C@H](COc2ccccc2)[C@H](O)[C@@H](O)[C@@H](COc2ccccc2)N(CC(=O)NC)S1(=O)=O [(3R,4S,5S,6R)-2,7-Bis[(N-methylcarbamoyl)methyl]-3,6-bis(phenoxymethyl)-4,5-dihydroxy-1,2,7-thiadiazepine 1,1-Dioxide]	25 µM
CN1[C@H](COc2ccccc2)[C@H](O)[C@@H](O)[C@@H](COc2ccccc2)N(C)S1(=O)=O [(3R,4S,5S,6R)-2,7-Bismethyl-3,6-bis(phenoxymethyl)-4,5-dihydroxy-1,2,7-thiadiazepine 1,1-Dioxide]	0.71 µM
COC(=O)c1ccc(CN2[C@H](COc3ccccc3)[C@H](O)[C@@H](O)[C@@H](COc3ccccc3)N(Cc3ccc(C(=O)OC)cc3)S2(=O)=O)cc1	0.084 µM
CN1[C@H](COc2ccccc2)[C@H](O)[C@@H](O)[C@@H](COc2ccccc2)N(Cc2ccccc2)S1(=O)=O [(3R,4S,5S,6R)-3,6-Bis(phenoxymethyl)-4,5-dihydroxy-7-methyl-2-benzyl-1,2,7-thiadiazepine 1,1-Dioxide]	0.51 µM
